Experiments:
neovascularization = assay: Contemplated clinical cases, local ocular CAI against neovascularization; format: in vivo
Description: The following contemplated clinical cases of angiogenesis are presented as examples of methods of treatment and not as limitations. Other illustrations of treating systemic or localized angiogenesis are not presented, since the principles involved are similar, and will be apparent to the skilled reader based upon review of an individual's clinical manifestation and the preferred embodiments of the inventive compositions.

[1] = in vivo; cited from earlier work
[2] = patients; cited from earlier work
[3] = cited from earlier work
[4] = single 5 mg peribulbar injection in humans; cited from earlier work

| SMILES | neovascular regression (neovascularization; Example 9, proliferative diabetic retinopathy, intravitreal 50 mcg) | neovascular regression (neovascularization; Example 10, subfoveal membrane, intravitreal 200 mcg then periocular sustained release solution) | serum half-life [1] | plasma concentrations associated with unacceptable toxicity [2] | toxic effects observed in clinical studies ([3]; systemic oral dosing, doses required for effective circulating levels) | serious side effect of clinical use by systemic administration ([3]; two cases described (Berlin et al. 2002)) | dexamethasone detected in the vitreous cavity [4] |
| --- | --- | --- | --- | --- | --- | --- | --- |
| NC(=O)c1nnn(Cc2cc(Cl)c(C(=O)c3ccc(Cl)cc3)c(Cl)c2)c1N [CAI] | some neovascular regression | neovascular regression occurs | 111 h | above 100 micromolar | cerebellar ataxia, peripheral neuropathy and exacerbation of depression | loss of vision |  |
| C[C@@H]1C[C@H]2[C@@H]3CCC4=CC(=O)C=C[C@]4(C)[C@@]3(F)[C@@H](O)C[C@]2(C)[C@@]1(O)C(=O)CO [Dexamethasone] |  |  |  |  |  |  | 13 ng/mL |

— patent US8614235B2, “CAI-based systems and methods for the localized treatment of ocular and other diseases” (RFE Pharma LLC, priority 2004, dated 2013)
